Holding throughout (format): biochemical
Test [1] addresses T1, ITK (Homo sapiens, UniProt Q08881).
T1 sequence (Q08881 1-620): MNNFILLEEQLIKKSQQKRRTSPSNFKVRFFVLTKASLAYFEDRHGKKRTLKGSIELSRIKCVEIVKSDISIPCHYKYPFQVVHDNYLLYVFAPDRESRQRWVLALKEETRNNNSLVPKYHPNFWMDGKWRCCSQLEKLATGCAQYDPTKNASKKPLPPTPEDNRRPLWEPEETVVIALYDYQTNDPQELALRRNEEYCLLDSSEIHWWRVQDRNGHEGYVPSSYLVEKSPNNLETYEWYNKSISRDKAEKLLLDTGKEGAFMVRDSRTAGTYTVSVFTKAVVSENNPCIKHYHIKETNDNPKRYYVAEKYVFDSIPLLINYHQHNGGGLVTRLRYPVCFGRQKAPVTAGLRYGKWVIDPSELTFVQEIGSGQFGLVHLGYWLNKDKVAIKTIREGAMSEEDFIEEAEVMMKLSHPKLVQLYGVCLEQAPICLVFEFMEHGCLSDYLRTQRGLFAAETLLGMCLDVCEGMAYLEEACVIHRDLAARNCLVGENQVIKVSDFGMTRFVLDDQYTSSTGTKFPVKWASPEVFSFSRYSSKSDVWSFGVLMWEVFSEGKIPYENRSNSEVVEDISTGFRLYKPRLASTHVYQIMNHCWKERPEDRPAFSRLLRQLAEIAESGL
Kind of test: Inhibition of a panel of kinases, in vitro HotSpot kinase assay: ITK. As to conditions: Table 15, C compounds; 1 μM ATP. As to the method: (§1) The degree of inhibition of a panel of kinases is determined using the in vitro HotSpot kinase assay (purified enzymes, ^33P-ATP, an appropriate substrate and 1 μM ATP).

For test [2], the target named is T2, BTK-WT (Homo sapiens, UniProt Q06187).
T2 construct: purified from insect cells as a full-length construct containing an N-terminal 6X-His tag; His6 (N); made in house; host or cells: insect cells (baculovirus Sf21 in Method B)
Kind of test: Btk in vitro inhibitory activity (one of Method A TR-FRET, Method B electrophoretic mobility shift, Method C radiometric filter binding). The note with it: Table 15, C compounds; read-out: IC50 BTK-WT.

Test [3] addresses T3, TEC (Homo sapiens, UniProt P42680).
T3 sequence (P42680 1-631): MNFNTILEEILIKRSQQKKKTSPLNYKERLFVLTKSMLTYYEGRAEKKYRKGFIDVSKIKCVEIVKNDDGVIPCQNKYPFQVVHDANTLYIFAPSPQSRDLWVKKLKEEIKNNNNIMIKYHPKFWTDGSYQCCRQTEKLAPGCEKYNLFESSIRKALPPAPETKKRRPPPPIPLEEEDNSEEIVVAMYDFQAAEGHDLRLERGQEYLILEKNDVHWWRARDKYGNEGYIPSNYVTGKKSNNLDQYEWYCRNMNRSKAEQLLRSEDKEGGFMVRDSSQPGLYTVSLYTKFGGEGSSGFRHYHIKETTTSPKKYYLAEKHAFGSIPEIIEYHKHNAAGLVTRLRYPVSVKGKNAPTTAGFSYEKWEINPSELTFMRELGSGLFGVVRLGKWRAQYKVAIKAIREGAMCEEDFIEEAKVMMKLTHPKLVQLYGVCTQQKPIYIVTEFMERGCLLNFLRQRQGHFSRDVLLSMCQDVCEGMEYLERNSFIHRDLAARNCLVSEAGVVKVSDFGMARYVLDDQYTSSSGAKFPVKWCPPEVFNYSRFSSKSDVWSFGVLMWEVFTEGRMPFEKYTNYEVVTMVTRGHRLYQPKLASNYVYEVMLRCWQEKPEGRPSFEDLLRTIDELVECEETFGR
Kind of test: Inhibition of a panel of kinases, in vitro HotSpot kinase assay: TEC. The note with it: Table 15, C compounds; 1 μM ATP. As to the method:
as §1

The target of test [4] is T4, TXK (Homo sapiens, UniProt P42681).
T4 sequence (P42681 1-527): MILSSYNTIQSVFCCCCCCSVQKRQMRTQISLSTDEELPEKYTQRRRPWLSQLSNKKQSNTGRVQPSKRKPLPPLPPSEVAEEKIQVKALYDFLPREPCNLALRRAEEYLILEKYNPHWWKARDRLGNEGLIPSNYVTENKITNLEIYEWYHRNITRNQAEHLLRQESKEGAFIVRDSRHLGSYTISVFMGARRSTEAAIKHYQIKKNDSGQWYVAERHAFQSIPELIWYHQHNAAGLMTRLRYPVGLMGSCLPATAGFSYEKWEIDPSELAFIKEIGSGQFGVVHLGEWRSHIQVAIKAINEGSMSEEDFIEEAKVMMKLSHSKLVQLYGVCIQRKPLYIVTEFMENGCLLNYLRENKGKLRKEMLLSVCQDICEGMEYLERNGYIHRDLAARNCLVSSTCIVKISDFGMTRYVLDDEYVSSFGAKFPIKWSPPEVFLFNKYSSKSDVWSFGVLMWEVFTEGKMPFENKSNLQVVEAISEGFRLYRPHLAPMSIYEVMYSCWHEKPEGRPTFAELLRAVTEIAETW
Kind of test: Inhibition of a panel of kinases, in vitro HotSpot kinase assay: TXK. As to conditions: Table 15, C compounds; 1 μM ATP. As to the method:
as §1

T2 sequence (Q06187 whole entry): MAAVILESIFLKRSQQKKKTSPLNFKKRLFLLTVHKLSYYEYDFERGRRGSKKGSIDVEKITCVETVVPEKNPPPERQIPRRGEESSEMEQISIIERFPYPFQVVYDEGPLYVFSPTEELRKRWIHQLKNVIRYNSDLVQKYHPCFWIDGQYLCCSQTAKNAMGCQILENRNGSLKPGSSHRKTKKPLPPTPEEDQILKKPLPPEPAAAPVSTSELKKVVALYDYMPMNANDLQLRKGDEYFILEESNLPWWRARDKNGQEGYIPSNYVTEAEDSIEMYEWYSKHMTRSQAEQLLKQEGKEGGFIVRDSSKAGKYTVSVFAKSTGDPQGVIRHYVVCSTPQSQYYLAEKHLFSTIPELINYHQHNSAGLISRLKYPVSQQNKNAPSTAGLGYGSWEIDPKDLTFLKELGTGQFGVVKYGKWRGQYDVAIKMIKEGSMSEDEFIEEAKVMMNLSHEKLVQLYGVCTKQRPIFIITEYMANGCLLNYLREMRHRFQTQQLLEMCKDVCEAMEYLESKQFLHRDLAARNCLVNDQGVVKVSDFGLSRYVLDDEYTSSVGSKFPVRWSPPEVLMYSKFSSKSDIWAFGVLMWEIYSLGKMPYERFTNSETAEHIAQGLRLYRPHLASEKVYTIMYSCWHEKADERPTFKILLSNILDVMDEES

On to `C=CC(=O)N1CCC[C@@H](Nc2nnc(C(N)=O)c(Nc3ccc(C(C)C)c(C)c3)n2)C1` [Example C-53, (R)-3-(1-acryloylpiperidin-3-ylamino)-5-(4-isopropyl-3-methylphenylamino)-1,2,4-triazine-6-carboxamide], for which the IC50 (usually the concentration at which inhibition is half-maximal) is 10 to 100 nM in test [1], not above 10 nM in test [2], not above 10 nM in test [3] and not above 10 nM in test [4].

Take `C=CC(=O)N1CCC[C@@H](Nc2nnc(C(N)=O)c(Nc3ccc4ncsc4c3)n2)C1` [Example C-63, (R)-3-(1-acryloylpiperidin-3-ylamino)-5-(benzo[d]thiazol-6-ylamino)-1,2,4-triazine-6-carboxamide]: the IC50 in test [1], in test [2], in test [3] and in test [4] was not above 10 nM each time.

`C=CC(=O)N1CC[C@@H](N(C)c2cnc(C(N)=O)c(Nc3ccc(C4(C)CCN(C5CC5)CC4)cc3)n2)C1` [Example C-65, (R)-5-((1-acryloylpyrrolidin-3-yl)(methyl)amino)-3-(4-(1-cyclopropyl-4-methylpiperidin-4-yl)phenylamino) pyrazine-2-carboxamide]: the IC50 in test [1], in test [2], in test [3] and in test [4] was not above 10 nM each time.

With `C=CC(=O)N1CCC[C@@H](Nc2nnc(C(N)=O)c(Nc3ccc(I)cc3)n2)C1` [Example C-62, (R)-3-(1-acryloylpiperidin-3-ylamino)-5-(4-iodophenylamino)-1,2,4-triazine-6-carboxamide], the IC50 in test [1] is 10 to 100 nM; in test [2] it was not above 10 nM; in test [3], not above 10 nM; in test [4], not above 10 nM.

Take `C=CC(=O)N1CCC[C@@H](Nc2nnc(C(N)=O)c(Nc3ccc(CN(C(=O)OCc4ccccc4)[C@@H](C)C(C)(C)C)cc3)n2)C1` [Example C-72, benzyl 4-(3-((R)-1-acryloylpiperidin-3-ylamino)-6-carbamoyl-1,2,4-triazin-5-ylamino)benzyl((S)-3,3-dimethylbutan-2-yl)carbamate]: the IC50 in test [1] was 10 to 100 nM; in test [2], not above 10 nM; in test [3], not above 10 nM; in test [4] it was 10 to 100 nM.

As for `C=CC(=O)N1CCC[C@@H](Nc2nnc(C(N)=O)c(Nc3ccc4c(cnn4CC)c3)n2)C1` [Example C-80, (R)-3-(1-acryloylpiperidin-3-ylamino)-5-(1-ethyl-1H-indazol-5-ylamino)-1,2,4-triazine-6-carboxamide], the IC50 in test [1], in test [2], in test [3] and in test [4] was not above 10 nM in each case.

For the compound `C=CC(=O)N1CCC[C@@H](Nc2nnc(C(N)=O)c(Nc3ccc(C(C)(C)C#N)cc3)n2)C1` [Example C-61, (R)-3-(1-acryloylpiperidin-3-ylamino)-5-(4-(2-cyanopropan-2-yl)phenylamino)-1,2,4-triazine-6-carboxamide], the IC50 in test [1], in test [2], in test [3] and in test [4] was not above 10 nM in each case.

`C=CC(=O)N1CCC[C@@H](Nc2nnc(C(N)=O)c(Nc3cnc4ccccc4c3)n2)C1` [Example C-70, (R)-3-(1-acryloylpiperidin-3-ylamino)-5-(quinolin-3-ylamino)-1,2,4-triazine-6-carboxamide]: the IC50 is 10 to 100 nM in test [1], not above 10 nM in test [2], not above 10 nM in test [3] and not above 10 nM in test [4].

On to `C=CC(=O)N1CCC[C@@H](Nc2nnc(C(N)=O)c(Nc3ccc(-n4nccn4)cc3)n2)C1` [Example C-81, (R)-5-(4-(2H-1,2,3-triazol-2-yl)phenylamino)-3-(1-acryloylpiperidin-3-ylamino)-1,2,4-triazine-6-carboxamide], for which the IC50 was 10 to 100 nM in test [1], not above 10 nM in test [2], not above 10 nM in test [3] and not above 10 nM in test [4].

With `C=CC(=O)N1CCC[C@@H](Nc2nnc(C(N)=O)c(Nc3cccc(-c4ncco4)c3)n2)C1` [Example C-79, (R)-3-(1-acryloylpiperidin-3-ylamino)-5-(3-(oxazol-2-yl)phenylamino)-1,2,4-triazine-6-carboxamide], the IC50 is 10 to 100 nM in test [1], not above 10 nM in test [2], not above 10 nM in test [3] and not above 10 nM in test [4].

Consider `C=CC(=O)N1CCC[C@@H](Nc2nnc(C(N)=O)c(Nc3ccc(C4CCN(C5CCCC5)CC4)cc3)n2)C1` [Example C-60, (R)-3-(1-acryloylpiperidin-3-ylamino)-5-(4-(1-cyclopentylpiperidin-4-yl)phenylamino)-1,2,4-triazine-6-carboxamide], for which the IC50 in test [1], in test [2], in test [3] and in test [4] was not above 10 nM in each case.

Regarding `C=CC(=O)N1CCC[C@@H](Nc2nnc(C(N)=O)c(Nc3ccc(-n4cncn4)cc3)n2)C1` [Example C-83, (R)-5-(4-(1H-1,2,4-triazol-1-yl)phenylamino)-3-(1-acryloylpiperidin-3-ylamino)-1,2,4-triazine-6-carboxamide], the IC50 in test [1] was 10 to 100 nM; in test [2] it was not above 10 nM; in test [3], not above 10 nM; in test [4], not above 10 nM.

For the compound `C=CC(=O)N1CC[C@@H](N(C)c2cnc(C(N)=O)c(Nc3ccc(C4(C)CCN(C5CCCC5)CC4)cc3)n2)C1` [Example C-67, (R)-5-((1-acryloylpyrrolidin-3-yl)(methyl)amino)-3-(4-(1-cyclopentyl-4-methylpiperidin-4-yl)phenylamino)pyrazine-2-carboxamide], the IC50 was not above 10 nM in test [1], not above 10 nM in test [2], not above 10 nM in test [3] and more than 10000 nM in test [4].

Regarding `C=CC(=O)N1CCC[C@@H](Nc2nnc(C(N)=O)c(Nc3ccc(C)cc3)n2)C1` [Example C-54, (R)-3-(1-acryloylpiperidin-3-ylamino)-5-(p-tolylamino)-1,2,4-triazine-6-carboxamide], the IC50 in test [1] was 10 to 100 nM; in test [2] it was not above 10 nM; in test [3] it was not above 10 nM; in test [4] it was not above 10 nM.

For the compound `C=CC(=O)N1CCC[C@@H](Nc2nnc(C(N)=O)c(Nc3cncc(F)c3)n2)C1` [Example C-69, (R)-3-(1-acryloylpiperidin-3-ylamino)-5-(5-fluoropyridin-3-ylamino)-1,2,4-triazine-6-carboxamide], the IC50 was 100 to 1000 nM in test [1], not above 10 nM in test [2], not above 10 nM in test [3] and not above 10 nM in test [4].

Regarding `C=CC(=O)N1CCC[C@@H](Nc2nnc(C(N)=O)c(Nc3ccc(-c4ncccn4)cc3)n2)C1` [Example C-52, (R)-3-(1-acryloylpiperidin-3-ylamino)-5-(4-(pyrimidin-2-yl)phenylamino)-1,2,4-triazine-6-carboxamide], the IC50 in test [1] is 10 to 100 nM; in test [2], not above 10 nM; in test [3] it was not above 10 nM; in test [4] it was not above 10 nM.

These data come from US20210070748A1, “INHIBITORS OF BRUTONS TYROSINE KINASE” (Pharmacyclics LLC, priority 2015, published 2021).
